Measurements reported in patent US7423121B2, “Sodium channel rNav1.5a” (Neurosearch A/S, priority 2000, dated 2008).

Tests used:
[1] = target: rNav1.2a (Rattus norvegicus, UniProt P04775); test: Whole-cell recording of peak sodium current, inhibition by Lamotrigine, classical brain type rNav1.2a; format: cell-based; conditions: physiological saline, stimulation every 5 second, step from holding potential (e.g. −90 mV) to −10 mV
Description: (§1) Comparison of the Inhibitory Effect of Lamotrigine on the Classical Brain Type rNav1.2a and the Sodium Channel Expressed Endogenously in HiB5 Cells (rNav1.5a)
(§2) Experiments were performed as whole-cell recordings in physiological saline with stimulation of the sodium channel every 5 second by stepping from a holding potential (e.g. −90 mV) to −10 mV and monitoration of the peak current as a function of the concentration of Lamotrigine added to the recording chamber.

[2] = target: T1, rNav1.5a (Rattus norvegicus, UniProt P15389); test: Whole-cell recording of peak sodium current, inhibition by Lamotrigine, sodium channel expressed endogenously in HiB5 cells (rNav1.5a); format: cell-based
T1 construct: the Sodium Channel Expressed Endogenously in HiB5 Cells (rNav1.5a); endogenous in cells; host or cells: HiB5 (rat hippocampal stem cell line)
T1 sequence (P15389 1-1966 isoform P15389-2): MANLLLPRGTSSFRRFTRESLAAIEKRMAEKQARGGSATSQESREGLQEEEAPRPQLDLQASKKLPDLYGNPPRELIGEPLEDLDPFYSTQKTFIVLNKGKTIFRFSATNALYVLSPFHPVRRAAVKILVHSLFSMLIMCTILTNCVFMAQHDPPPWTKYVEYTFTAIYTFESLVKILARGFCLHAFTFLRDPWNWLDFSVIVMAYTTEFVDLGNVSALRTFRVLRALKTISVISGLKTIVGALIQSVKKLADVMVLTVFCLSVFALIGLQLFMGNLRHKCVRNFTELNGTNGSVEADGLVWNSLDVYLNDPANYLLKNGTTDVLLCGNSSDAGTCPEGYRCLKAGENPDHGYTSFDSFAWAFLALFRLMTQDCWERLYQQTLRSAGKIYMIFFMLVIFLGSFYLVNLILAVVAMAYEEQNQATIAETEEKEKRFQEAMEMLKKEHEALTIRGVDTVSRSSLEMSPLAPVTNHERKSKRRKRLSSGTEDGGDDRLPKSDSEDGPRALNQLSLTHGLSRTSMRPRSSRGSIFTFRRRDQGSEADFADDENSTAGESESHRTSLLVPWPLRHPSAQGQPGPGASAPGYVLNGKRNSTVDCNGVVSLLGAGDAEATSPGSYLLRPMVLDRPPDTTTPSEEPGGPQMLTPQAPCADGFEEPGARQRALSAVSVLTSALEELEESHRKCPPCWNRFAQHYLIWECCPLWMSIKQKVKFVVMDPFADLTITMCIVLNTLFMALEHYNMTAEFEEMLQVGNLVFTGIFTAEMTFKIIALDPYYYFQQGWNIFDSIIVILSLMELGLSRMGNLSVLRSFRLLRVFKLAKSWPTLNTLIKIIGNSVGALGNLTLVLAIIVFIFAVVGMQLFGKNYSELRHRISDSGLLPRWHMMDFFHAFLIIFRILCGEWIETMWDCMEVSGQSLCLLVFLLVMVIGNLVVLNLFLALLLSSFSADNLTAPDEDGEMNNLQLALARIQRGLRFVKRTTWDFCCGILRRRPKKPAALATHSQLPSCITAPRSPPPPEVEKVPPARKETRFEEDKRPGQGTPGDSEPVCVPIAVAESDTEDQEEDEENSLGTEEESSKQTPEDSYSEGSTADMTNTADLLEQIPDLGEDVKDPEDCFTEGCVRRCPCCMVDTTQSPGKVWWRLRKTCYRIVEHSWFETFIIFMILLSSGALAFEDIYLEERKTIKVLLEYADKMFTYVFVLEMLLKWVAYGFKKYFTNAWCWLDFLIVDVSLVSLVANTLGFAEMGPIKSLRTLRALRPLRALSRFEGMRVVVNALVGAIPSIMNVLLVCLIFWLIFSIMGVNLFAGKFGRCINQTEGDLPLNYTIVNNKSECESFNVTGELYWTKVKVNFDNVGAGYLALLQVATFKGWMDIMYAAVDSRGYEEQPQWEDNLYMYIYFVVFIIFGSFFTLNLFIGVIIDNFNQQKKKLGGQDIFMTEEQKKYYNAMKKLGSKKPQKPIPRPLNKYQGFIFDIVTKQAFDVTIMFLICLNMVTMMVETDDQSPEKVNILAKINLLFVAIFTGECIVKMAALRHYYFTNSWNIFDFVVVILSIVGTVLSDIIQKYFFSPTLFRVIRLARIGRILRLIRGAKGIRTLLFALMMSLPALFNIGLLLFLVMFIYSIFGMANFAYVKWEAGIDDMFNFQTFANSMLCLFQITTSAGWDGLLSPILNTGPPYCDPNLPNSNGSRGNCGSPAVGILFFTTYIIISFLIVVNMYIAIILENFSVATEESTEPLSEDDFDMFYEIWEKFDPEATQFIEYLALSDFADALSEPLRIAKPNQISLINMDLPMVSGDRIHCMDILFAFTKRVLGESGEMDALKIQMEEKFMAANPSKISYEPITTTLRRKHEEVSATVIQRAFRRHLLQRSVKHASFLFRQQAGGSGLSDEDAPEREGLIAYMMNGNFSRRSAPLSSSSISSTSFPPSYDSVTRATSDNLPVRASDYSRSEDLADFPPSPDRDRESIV
Description: as §1, §2

Question: Which results are given for `Nc1nnc(-c2cccc(Cl)c2Cl)c(N)n1` [Lamotrigine]?
Answer: IC50 [1]: 500 µM; IC50 ([2]; HiB5 cells, whole-cell recording, physiological saline, stimulation every 5 second, step from holding potential (e.g. −90 mV) to −10 mV): 20 µM; Potency on rNav1.5a relative to classical brain subtype BIIA ([2]; comparison with BIIA (rNav1.2a), see Example 2): more potently
